Reference: PubChem BioAssay (NCI)
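These data come from cells grown in 96-well plates and exposed to compound for 48 hours at five concentrations. The concentration for 50% growth inhibition is given as GI50. TGI: total growth inhibition.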

Assays:
Assay in all cases: growth of human tumour cells (NCI), 48 h; in the data active = GI50 below about 0.43 µM; inactive = the rest
A498 renal = tested on: A498 renal
OVCAR-5 ovarian = tested on: OVCAR-5 ovarian
M14 melanoma = tested on: M14 melanoma
NCI-H23 lung = tested on: NCI-H23 lung
786-0 renal = tested on: 786-0 renal
A549 NSCLC = tested on: A549 NSCLC
LOX IMVI melanoma = tested on: LOX IMVI melanoma
NCI-H460 lung = tested on: NCI-H460 lung
PC-3 prostate = tested on: PC-3 prostate
NCI/ADR-RES ovarian = tested on: NCI/ADR-RES ovarian

CC1=Nc2c(ccc3c2C(=O)c2ccccc2C3=O)NC(c2ccncc2)C1 (stereo not drawn)
> 100 µM: TGI (A498 renal) | TGI (OVCAR-5 ovarian) | TGI (M14 melanoma) | TGI (NCI-H23 lung) | TGI (786-0 renal) | TGI (A549 NSCLC) | TGI (LOX IMVI melanoma) | TGI (NCI-H460 lung)
inactive: GI50 (M14 melanoma) > 100 µM | GI50 (NCI-H23 lung) > 100 µM | GI50 (786-0 renal) > 100 µM | GI50 (NCI-H460 lung) > 100 µM

CC(=O)OCCOCBr
> 100 µM: TGI (A498 renal) | TGI (OVCAR-5 ovarian) | TGI (M14 melanoma) | TGI (786-0 renal) | TGI (A549 NSCLC) | TGI (LOX IMVI melanoma) | TGI (NCI-H460 lung)

NS(=O)(=O)c1ccc(NC(=O)c2cccc3c(=O)c4ccccc4[nH]c23)cc1
> 100 µM: TGI (A498 renal) | TGI (OVCAR-5 ovarian) | TGI (M14 melanoma) | TGI (NCI-H23 lung) | TGI (786-0 renal) | TGI (A549 NSCLC) | TGI (LOX IMVI melanoma) | TGI (NCI-H460 lung)

NC(CCSCC(F)F)C(=O)O (stereo not drawn)
> 100 µM: TGI (A498 renal) | TGI (OVCAR-5 ovarian) | TGI (M14 melanoma) | TGI (NCI-H23 lung) | TGI (786-0 renal) | TGI (A549 NSCLC) | TGI (LOX IMVI melanoma) | TGI (NCI-H460 lung)

CCN(CCO)CCNc1ccc(C)c2sc3cc(Cl)ccc3c(=O)c12
3.03 µM: TGI (NCI-H460 lung)
inactive: GI50 (PC-3 prostate) 1.34 µM | GI50 (OVCAR-5 ovarian) 1.59 µM | GI50 (M14 melanoma) 1.64 µM | GI50 (NCI-H23 lung) 1.63 µM | GI50 (NCI/ADR-RES ovarian) 1.49 µM | GI50 (786-0 renal) 1.41 µM | GI50 (A549 NSCLC) 1.73 µM | GI50 (LOX IMVI melanoma) 1.59 µM | GI50 (NCI-H460 lung) 1.41 µM
3.28 µM: TGI (A549 NSCLC)
2.84 µM: TGI (786-0 renal)
3.3 µM: TGI (OVCAR-5 ovarian)
3.45 µM: TGI (NCI-H23 lung)
2.94 µM: TGI (PC-3 prostate)
3.11 µM: TGI (NCI/ADR-RES ovarian)
3.23 µM: TGI (M14 melanoma)
3.06 µM: TGI (LOX IMVI melanoma)

CCCCCC(C(O)C#N)C(O)(C(F)(F)F)C(F)(F)F (stereo not drawn)
> 10 µM: TGI (PC-3 prostate) | TGI (OVCAR-5 ovarian) | TGI (M14 melanoma) | TGI (NCI-H23 lung) | TGI (NCI/ADR-RES ovarian) | TGI (786-0 renal) | TGI (A549 NSCLC) | TGI (LOX IMVI melanoma)

c1cc[c]([Sn]([S]c2cccc3cccnc23)([c]2ccccc2)[c]2ccccc2)cc1
0.0624 µM: TGI (M14 melanoma)
0.346 µM: TGI (A498 renal)
0.175 µM: TGI (NCI-H23 lung)
0.0304 µM: TGI (LOX IMVI melanoma)
0.224 µM: TGI (A549 NSCLC)
0.0758 µM: TGI (786-0 renal)
0.033 µM: TGI (NCI-H460 lung)
active: GI50 (A498 renal) 0.152 µM | GI50 (M14 melanoma) 0.0222 µM | GI50 (NCI-H23 lung) 0.0305 µM | GI50 (786-0 renal) 0.0234 µM | GI50 (A549 NSCLC) 0.0331 µM | GI50 (LOX IMVI melanoma) 0.0159 µM | GI50 (NCI-H460 lung) 0.0143 µM

COc1ccc(/C=C/C(=O)c2sc(-n3nc(-c4ccccc4)cc3-c3ccccc3)nc2C)cc1OC
92.6 µM: TGI (OVCAR-5 ovarian)
> 100 µM: TGI (M14 melanoma) | TGI (NCI-H23 lung) | TGI (786-0 renal) | TGI (A549 NSCLC) | TGI (NCI-H460 lung)
96.6 µM: TGI (LOX IMVI melanoma)

NC1=NC(=O)C(CC(=O)Nc2ccc([N+](=O)[O-])cc2[N+](=O)[O-])S1 (stereo not drawn)
> 100 µM: TGI (OVCAR-5 ovarian) | TGI (M14 melanoma) | TGI (NCI-H23 lung) | TGI (786-0 renal) | TGI (A549 NSCLC) | TGI (LOX IMVI melanoma) | TGI (NCI-H460 lung)

Clc1ccc(CNc2nc3ccccc3nc2-c2cccs2)c(Cl)c1
> 100 µM: TGI (OVCAR-5 ovarian) | TGI (NCI-H23 lung) | TGI (786-0 renal) | TGI (A549 NSCLC) | TGI (NCI-H460 lung)

O=C1CCn2c([nH]c3cccc4cccc2c43)=N1
> 100 µM: TGI (OVCAR-5 ovarian) | TGI (M14 melanoma) | TGI (NCI-H23 lung) | TGI (786-0 renal) | TGI (A549 NSCLC) | TGI (LOX IMVI melanoma) | TGI (NCI-H460 lung)

CCOC(=O)Cc1nc(/C(C#N)=C/c2ccco2)[nH]c(=O)c1C#N
> 100 µM: TGI (OVCAR-5 ovarian) | TGI (M14 melanoma) | TGI (NCI-H23 lung) | TGI (786-0 renal) | TGI (A549 NSCLC) | TGI (LOX IMVI melanoma) | TGI (NCI-H460 lung)
